# Laboratory results: patent US11129909B2, “Conjugate and block copolymer containing fluorescent chromophore and preparation method therefor and use thereof” (priority 2017, dated 2021)
# Assays:
# [1] = test system: HepG2 cells (lacking CEA and NQO1); experiment: CLSM detection of intracellular CEA and quinone oxidoreductase, HepG2 cells; assay type: cell-based; conditions: HepG2 cells co-cultured with conjugate
# Source text: (§1) Viable HepG2 cells (lacking CEA and NQO1), LS180 cells (normal CEA and lacking NQO1) and HT29 cells (normal CEA and normal NQO1) were co-cultured with QNAM-C1-ACEA antibody-probe conjugate.
# [2] = test system: LS180 cells (normal CEA and lacking NQO1); experiment: CLSM detection of intracellular CEA and quinone oxidoreductase, LS180 cells; assay type: cell-based; conditions: LS180 cells co-cultured with conjugate
# Source text: as §1
# [3] = test system: HT29 cells (normal CEA and normal NQO1); experiment: CLSM detection of intracellular CEA and quinone oxidoreductase, HT29 cells; assay type: cell-based; conditions: HT29 cells co-cultured with conjugate
# Source text: as §1
# NQO1 = NQO1 (Homo sapiens, UniProt P15559); experiment: Enzyme detection by antibody-probe conjugate: fluorescence/FRET change with NADPH/NQO1; assay type: biochemical; conditions: NADPH/NQO1 in water system, culture time of about 1 h; NAM emission 530 nm vs C1 emission 435 nm
# Sequence of NQO1 (P15559 whole entry, species assumed): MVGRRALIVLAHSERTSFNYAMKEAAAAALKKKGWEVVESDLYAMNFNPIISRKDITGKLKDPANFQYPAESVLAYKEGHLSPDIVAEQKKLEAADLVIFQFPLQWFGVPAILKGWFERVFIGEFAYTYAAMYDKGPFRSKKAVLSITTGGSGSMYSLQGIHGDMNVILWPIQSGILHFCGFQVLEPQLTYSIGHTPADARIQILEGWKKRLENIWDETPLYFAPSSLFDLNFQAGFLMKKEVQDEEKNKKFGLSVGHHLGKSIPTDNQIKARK
# Description: In a culture time of about 1 h, a change of about 20 times the FRET ratio (intensity ratio of two emission peaks) can be seen (see inset). The above results indicated the occurrence of an efficient FRET process between the C1 coumarin linkage bond and the enzymatic-produced NAM residue.
structure (smiles),measurement,setting,value
COC(=O)CC(SC)C(=O)Nc1cc2ccc(-c3cn(CCN4C(=O)c5cccc6c(NC(=O)CC(C)(C)C7=C(C)C(=O)C(C)=C(C)C7=O)ccc(c56)C4=O)nn3)cc2oc1=O (stereo not shown) [QNAM-C1-ACEA],CLSM emission of C1 coumarin (blue) and NAM (green) in cells,[1],very low blue and green emission
same,CLSM emission of C1 coumarin (blue) and NAM (green) in cells,[2],intermittent blue luminous points of C1 coumarin and few NAM green emission signals
same,CLSM emission of C1 coumarin (blue) and NAM (green) in cells,[3],green channel NAM emission was obviously enhanced
same,change of the FRET ratio (intensity ratio of two emission peaks),NQO1,about 20 times
